Common to all, as to assay: growth of human tumour cells (NCI), 48 h
The subject of assay [1] is SR leukemia.
The subject of assay [2] is CAKI-1 renal.
Assay [3] concerns ACHN renal.
The subject of assay [4] is KM12 colon.
In assay [5] the test system is IGROV1 ovarian.
For assay [6], the system named is NCI-H226 lung.
The test system of assay [7] is SK-MEL-5 melanoma.
Assay [8] concerns TK-10 renal.
Assay [9] deals with U251 CNS.

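Step 1: Grow cells in 96-well plates. Step 2: Expose to compound for 48 hours at 5 concentrations. Step 3: Interpolate endpoints linearly; if unreached, use highest concentration. GI50 marks 50% less growth. TGI: concentration producing complete growth inhibition.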

Regarding `O=C(O)C12C3CCCC1C2CC3` (stereo unspecified), the TGI in assay [1], in assay [2], in assay [3], in assay [4], in [5] and in assay [6] was above 100 µM each time. The TGI in assay [7], in [8] and in [9] was above 100 µM in each case.

Turning to `COC(=O)c1c(CC#N)cccc1CC#N`, the TGI in [1], in assay [2], in assay [3], in assay [4], in [5] and in assay [6] was above 100 µM each time. The compound further showed a TGI in assay [9] above 100 µM.

Turning to `Nc1c(-c2nc3ccccc3[nH]2)sc(=S)n1-c1ccccc1`, the TGI in assay [1] was 86.5 µM; in assay [2], above 100 µM; in [3], above 100 µM; in assay [4], above 100 µM; in assay [5], above 100 µM; in [6], above 100 µM. Further, the TGI in [7] and in assay [9] was above 100 µM throughout.

As for `O=C1C=Cc2ccccc2/C1=C/c1[nH]c(=O)[nH]c1O`, the GI50 was 1.67 µM in assay [1]; 5.7 µM in assay [2]; 9.97 µM in [3]; 2.99 µM in assay [4]; 1.39 µM in assay [5]; 9.59 µM in assay [6]. Further, the GI50 in assay [7] was 2.84 µM; in assay [8], 10.5 µM; in assay [9] it was 5.39 µM. For the same compound, the TGI in assay [1] was 7.83 µM; in assay [2] it was 42.7 µM; in [3], above 100 µM; in assay [4], 9.34 µM; in [5] it was 26.6 µM; in assay [6] it was above 100 µM. Moreover, the TGI in [7] turned out to be 13 µM; in [8], 85.4 µM; in [9], 35 µM.

`CC1=Cc2cc3[n-]c(cc4nc(cc5[n-]c(cc1n2)cc5C)C(C)=C4CCC(=O)O)c(CCC(=O)O)c3C.[Pd+2]`: the GI50 in assay [1] is 2.82 µM; in [2] it was 27 µM; in assay [3], 6.31 µM; in assay [4] it was 27 µM; in [5], 14.2 µM; in [6] it was 8.95 µM. Also, the GI50 is 7.73 µM in [7], 24.9 µM in [8] and 2.56 µM in assay [9]. Moreover, the TGI in assay [1] amounted to 9.75 µM; in assay [2] it was 48.6 µM; in [3], 16.6 µM; in assay [4], 53.3 µM; in assay [5], 25.6 µM; in assay [6], 17.8 µM. Besides, the TGI in assay [7] was determined as 19.6 µM; in assay [8], 52.9 µM; in assay [9], 8.24 µM.

For the compound `N.N.NC(CS)C(=O)[O-].NC(CS)C(=O)[O-].[Pt+4]` (stereo unspecified), the GI50 in assay [1], in assay [3], in assay [4], in [5], in assay [6] and in [7] was above 50 µM each time. For the same compound, the GI50 in assay [8] and in assay [9] was above 50 µM throughout. Also, the TGI in [1], in assay [3], in assay [4], in assay [5], in [6] and in assay [7] was above 50 µM in each case. Also, the TGI in assay [8] and in assay [9] was above 50 µM throughout.

`COC(=O)c1nc(NC#N)[nH]c(=O)c1C`: the TGI in assay [2], in assay [3], in assay [4], in [5], in [7] and in assay [8] was above 100 µM in each case. In addition, in assay [9], the TGI was above 100 µM.

For `CCOC(=O)C(=O)Nc1c(N(CC)CC)n2ccccc2nc1=O`, the TGI in assay [1], in assay [2], in [3], in assay [4], in assay [5] and in assay [6] was above 100 µM throughout. Moreover, the TGI in [7] and in [9] was above 100 µM in each case.

With `CC[N+](CC)(CC)CCCn1c2c(c3ccccc3c1=O)C(=O)c1ccccc1-2`, the GI50 in assay [1] is 3.56 µM; in assay [2], 3.74 µM; in [3], 3.07 µM; in assay [4], 4.74 µM; in assay [5] it was 3.1 µM; in [7] it was 1.43 µM. For the same compound, the results for the GI50 in [8] and in assay [9] were 1.01 µM and 4.77 µM, respectively. Besides, the TGI is above 100 µM in assay [1]; 30.9 µM in [2]; 26.8 µM in assay [3]; above 100 µM in [4]; 24.1 µM in assay [5]; 5.91 µM in assay [7]. The TGI in [8] and in assay [9] was above 100 µM throughout.

In the case of `CC1(C)N=C(N)N=C(N)N1c1cc(Cl)ccc1Cl`, the GI50 in assay [1] was above 100 µM; in [3], above 100 µM; in [4] it was above 100 µM; in [5] it was 27.6 µM; in assay [6], above 100 µM; in assay [7] it was above 100 µM. For the same compound, the GI50 in assay [8] and in assay [9] was above 100 µM each time. The TGI was above 100 µM in [1]; above 100 µM in [3]; above 100 µM in assay [4]; 88.6 µM in assay [5]; above 100 µM in [6]; above 100 µM in [7]. For the same compound, the TGI in assay [8] and in assay [9] was above 100 µM throughout.

In the case of `c1ccc(N=C2c3ccccc3C3=NCCCN32)cc1`, the TGI is above 100 µM in assay [2]; above 100 µM in assay [3]; above 100 µM in [4]; above 100 µM in assay [5]; above 100 µM in assay [6]; 76.8 µM in assay [7]. Also, the TGI in [8] and in [9] was above 100 µM in each case.

(Values after PubChem BioAssay (NCI).)
